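Step 1: Grow cells in 96-well plates. Step 2: Expose to compound for 48 hours at 5 concentrations. Step 3: Interpolate endpoints linearly; if unreached, use highest concentration. Here, GI50 denotes the concentration required for 50% inhibition of growth.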 The source made the active and inactive calls. Rule as the data show it: active = GI50 up to about 1.1 µM and inactive = higher.
Legend:
Test in all cases: NCI tumour cell line growth inhibition, 48 h
ACHN = test system: ACHN
COLO 205 = test system: COLO 205
HCT-15 = test system: HCT-15
HL-60 = test system: HL-60
IGROV-1 = test system: IGROV-1
M14 = test system: M14
MCF7 = test system: MCF7
MOLT-4 = test system: MOLT-4
NCI-H460 = test system: NCI-H460
NCI-H522 = test system: NCI-H522
OVCAR-3 = test system: OVCAR-3
OVCAR-5 = test system: OVCAR-5
RXF 393 = test system: RXF 393
SK-MEL-2 = test system: SK-MEL-2
SK-OV-3 = test system: SK-OV-3
SNB-19 = test system: SNB-19
SR = test system: SR
SW-620 = test system: SW-620
MDA-MB-231 = test system: MDA-MB-231
MDA-N = test system: MDA-N

SMILES | GI50 (ACHN) | GI50 (COLO 205) | GI50 (HCT-15) | GI50 (HL-60) | GI50 (IGROV-1) | GI50 (M14) | GI50 (MCF7) | GI50 (MOLT-4) | GI50 (NCI-H460) | GI50 (NCI-H522) | GI50 (OVCAR-3) | GI50 (OVCAR-5) | GI50 (RXF 393) | GI50 (SK-MEL-2) | GI50 (SK-OV-3) | GI50 (SNB-19) | GI50 (SR) | GI50 (SW-620) | GI50 (MDA-MB-231) | GI50 (MDA-N)
CC(C)Oc1cccc(N2C(NCCc3c[nH]c4ccccc34)=Nc3ccncc3S2(=O)=O)c1 | 35.5 µM (inactive) | 1.79 µM (inactive) | 4.98 µM | 3.93 µM (inactive) | 41.7 µM (inactive) | 10.4 µM (inactive) | 4.73 µM (inactive) | 3.94 µM (inactive) | 6.53 µM (inactive) | 7.01 µM (inactive) | 11.7 µM (inactive) | > 100 µM (inactive) | 3.46 µM (inactive) | 20.8 µM (inactive) | > 100 µM (inactive) | > 100 µM (inactive) | 3.26 µM (inactive) | 8.36 µM (inactive) |  | 
C/C(=C\COP(=O)(O)OP(=O)(O)O)CC/C=C(\C)CNc1ccc([N+](=O)[O-])cc1 | > 100 µM (inactive) | > 100 µM (inactive) | > 100 µM | > 100 µM (inactive) | > 100 µM (inactive) | > 100 µM (inactive) | > 100 µM (inactive) | > 100 µM (inactive) | > 100 µM (inactive) | > 100 µM (inactive) | > 100 µM (inactive) | > 100 µM (inactive) | > 100 µM (inactive) | > 100 µM (inactive) | > 100 µM (inactive) | > 100 µM (inactive) | > 100 µM (inactive) | > 100 µM (inactive) | > 100 µM (inactive) | 
COCn1cnc2c(=O)n(-c3ccc(C)cc3)c(=S)n(-c3ccc(C)cc3)c21 | > 100 µM (inactive) | > 100 µM (inactive) | > 100 µM | > 100 µM (inactive) | > 100 µM (inactive) | > 100 µM (inactive) | > 100 µM (inactive) | > 100 µM (inactive) | > 100 µM (inactive) | > 100 µM (inactive) | > 100 µM (inactive) | > 100 µM (inactive) | 78.3 µM (inactive) | > 100 µM (inactive) | > 100 µM (inactive) | > 100 µM (inactive) | > 100 µM (inactive) | > 100 µM (inactive) | > 100 µM (inactive) | 
Cc1c(/C=N\NC(=S)N2CCN(C(=S)N/N=C\c3c(C)n(C)n(-c4ccccc4)c3=O)CC2)c(=O)n(-c2ccccc2)n1C | 21.2 µM (inactive) | > 100 µM (inactive) | 46.9 µM |  |  | 57 µM (inactive) |  | 37.4 µM (inactive) | 42 µM (inactive) | 60.7 µM (inactive) | 51.9 µM (inactive) | > 100 µM (inactive) | 67.9 µM (inactive) | 13.1 µM (inactive) | > 100 µM (inactive) | 47.5 µM (inactive) | 47.9 µM (inactive) | 33.2 µM (inactive) | 24 µM (inactive) | 
O=C1CSCC(=O)Nc2ccccc2N1 | > 100 µM (inactive) | > 100 µM (inactive) | > 100 µM | > 100 µM (inactive) | > 100 µM (inactive) | > 100 µM (inactive) |  | > 100 µM (inactive) | > 100 µM (inactive) | > 100 µM (inactive) | > 100 µM (inactive) | > 100 µM (inactive) | > 100 µM (inactive) | > 100 µM (inactive) | > 100 µM (inactive) | > 100 µM (inactive) | > 100 µM (inactive) | > 100 µM (inactive) | > 100 µM (inactive) | > 100 µM (inactive)
CCOC(=O)c1c(NC(=O)OC)c(C#N)c2n1CCCCC2 | > 100 µM (inactive) | > 100 µM (inactive) | > 100 µM | > 100 µM (inactive) | > 100 µM (inactive) | > 100 µM (inactive) | > 100 µM (inactive) | 45.1 µM (inactive) | > 100 µM (inactive) |  |  |  | > 100 µM (inactive) | > 100 µM (inactive) | > 100 µM (inactive) | > 100 µM (inactive) | > 100 µM (inactive) | > 100 µM (inactive) | 35.7 µM (inactive) | 
COC(=O)[C@@]12CSC[C@]1(C(=O)OC)N[C@@H](c1ccccc1O)C2 | > 100 µM (inactive) | > 100 µM (inactive) | > 100 µM | > 100 µM (inactive) | > 100 µM (inactive) | > 100 µM (inactive) | > 100 µM (inactive) | > 100 µM (inactive) | > 100 µM (inactive) | > 100 µM (inactive) | > 100 µM (inactive) | > 100 µM (inactive) | > 100 µM (inactive) | > 100 µM (inactive) | > 100 µM (inactive) | > 100 µM (inactive) | > 100 µM (inactive) | > 100 µM (inactive) |  | > 100 µM (inactive)
CCCCCCC(=O)c1ccc2ccccc2c1O | 54 µM (inactive) | 66.1 µM (inactive) | 32.8 µM | 36.4 µM (inactive) | 27.4 µM (inactive) | 58.3 µM (inactive) | 33.4 µM (inactive) | 20.3 µM (inactive) | 52.4 µM (inactive) |  |  |  | 25.1 µM (inactive) | 23.8 µM (inactive) | 52.4 µM (inactive) | > 100 µM (inactive) | 33.3 µM (inactive) | 64.7 µM (inactive) | 85.5 µM (inactive) | 
CN(CCO)CCCC1COc2ccccc2O1 (configuration not stated) | 63.8 µM (inactive) | > 100 µM (inactive) | > 100 µM | > 100 µM (inactive) | > 100 µM (inactive) | > 100 µM (inactive) | > 100 µM (inactive) | > 100 µM (inactive) | > 100 µM (inactive) | > 100 µM (inactive) | > 100 µM (inactive) | > 100 µM (inactive) | > 100 µM (inactive) |  | > 100 µM (inactive) | > 100 µM (inactive) | > 100 µM (inactive) | > 100 µM (inactive) |  | > 100 µM (inactive)
COC1(CCO)CC=CCC1(CCO)OC (configuration not stated) | > 100 µM (inactive) | > 100 µM (inactive) | > 100 µM | > 100 µM (inactive) | > 100 µM (inactive) | > 100 µM (inactive) | > 100 µM (inactive) | > 100 µM (inactive) | > 100 µM (inactive) | > 100 µM (inactive) | > 100 µM (inactive) | > 100 µM (inactive) |  | > 100 µM (inactive) | > 100 µM (inactive) | > 100 µM (inactive) |  | > 100 µM (inactive) |  | > 100 µM (inactive)
O=[N+]([O-])c1cc(/N=N/c2c(O)ccc3cc(S(=O)(=O)O)ccc23)c(O)c([N+](=O)[O-])c1 | > 100 µM (inactive) | > 100 µM (inactive) | 51.8 µM | 11.1 µM (inactive) | > 100 µM (inactive) | > 100 µM (inactive) |  | 31.5 µM (inactive) |  | > 100 µM (inactive) | 63.1 µM (inactive) | > 100 µM (inactive) | > 100 µM (inactive) | > 100 µM (inactive) | > 100 µM (inactive) | > 100 µM (inactive) |  | 93.1 µM (inactive) | > 100 µM (inactive) | > 100 µM (inactive)
COc1c(Br)cc(/C=C(\C#N)c2cccnc2)cc1Br | 93.3 µM (inactive) | 34.5 µM (inactive) | 33.5 µM | 36.2 µM (inactive) | 63 µM (inactive) | 43.4 µM (inactive) | 35.8 µM (inactive) | 49.1 µM (inactive) | 37.8 µM (inactive) | 42.1 µM (inactive) | 99.1 µM (inactive) | 30.3 µM (inactive) | 51.5 µM (inactive) | 96.6 µM (inactive) | 56.9 µM (inactive) | > 100 µM (inactive) | 29.5 µM (inactive) | 38.7 µM (inactive) |  | > 100 µM (inactive)
COC(CCC[N+](C)(C)C)CC[N+](C)(C)C (configuration not stated) | > 100 µM (inactive) | > 100 µM (inactive) | > 100 µM | > 100 µM (inactive) | > 100 µM (inactive) | > 100 µM (inactive) | > 100 µM (inactive) | > 100 µM (inactive) | > 100 µM (inactive) | > 100 µM (inactive) | > 100 µM (inactive) | > 100 µM (inactive) | > 100 µM (inactive) |  | > 100 µM (inactive) | > 100 µM (inactive) | > 100 µM (inactive) | > 100 µM (inactive) |  | > 100 µM (inactive)
Cc1nnc2sc(-c3ccc(N)cc3)nn12 | > 100 µM (inactive) | > 100 µM (inactive) | > 100 µM | > 100 µM (inactive) | > 100 µM (inactive) | > 100 µM (inactive) | > 100 µM (inactive) | > 100 µM (inactive) | > 100 µM (inactive) | > 100 µM (inactive) | > 100 µM (inactive) | > 100 µM (inactive) | > 100 µM (inactive) | > 100 µM (inactive) | > 100 µM (inactive) | > 100 µM (inactive) | > 100 µM (inactive) | > 100 µM (inactive) | > 100 µM (inactive) | 
COc1c(O)cc(C(=O)O[C@@H]2Cc3c(O)cc(O)cc3O[C@@H]2c2cc(O)c(O)c(O)c2)cc1O | 30.6 µM (inactive) |  | 26.5 µM | 19.7 µM (inactive) | 46.2 µM (inactive) | 59.4 µM (inactive) | 20 µM (inactive) | 24.2 µM (inactive) | 24.5 µM (inactive) | 24.4 µM (inactive) | 49.4 µM (inactive) | 39.4 µM (inactive) | 18.4 µM (inactive) | 63.2 µM (inactive) | > 100 µM (inactive) | 21.4 µM (inactive) | 18.7 µM (inactive) | 28.2 µM (inactive) |  | 24.4 µM (inactive)
CN(C)CCCN1c2ccc(O)cc2Sc2ccc(Cl)cc21 [7-HYDROXYCHLORPROMAZINE] | 14.8 µM (inactive) | 20.8 µM (inactive) | 14.2 µM | 13.9 µM (inactive) | 9.84 µM (inactive) | 5.97 µM (inactive) | 13.2 µM (inactive) | 3.18 µM (inactive) | 3.82 µM (inactive) | 11.4 µM (inactive) | 11.8 µM (inactive) | 15.1 µM (inactive) | 16.9 µM (inactive) | 6.04 µM (inactive) | 17.4 µM (inactive) | 13.3 µM (inactive) | 2.96 µM (inactive) | 17.5 µM (inactive) | 10.9 µM (inactive) | 

— ChEMBL document CHEMBL1201862, “PubChem BioAssay data set” (2004)
